Assay [1] relates to lymphocytic leukemia P388. The assay is classed as in vivo, murine. Conditions: for OD: QD1-9, Table IX; for ILS: QD1-9, at OD; for ILS / animals alive per 6: Table IX; for animals alive per 6: QD1-9, day 30, at OD; for survivors, P388: Table XI, parentheses, per 6.
A further assay concerns B16 melanocarcinoma. In kind it is in vivo, murine. Conditions: for OD: QD1-9, Table IX; for ILS: QD1-9, at OD, Table IX.
In assay [2] the test system is lymphoid leukemia L1210. In kind it is in vivo, murine. From the text:
(§1) A third IC tumor model, the ependymoblastoma system, was also studied. This system requires intracerebral implantation of a solid tumor fragment while the IC L1210 and IC P388 systems utilize IC inoculated ascites tumor fluid. All three use IP drug treatment however. […] Cures (survivors from the group of six mice on the last day of the experiment) are indicated.

The next assay relates to ependymoblastoma. In kind it is in vivo, murine. Conditions: for OD: QD1-5, Table X; for ILS: QD1-5, at OD; for ILS / animals alive per 6: Table X; for animals alive per 6: QD1-5, day 60, at OD; for survivors, EM: parentheses, per 6.
Excerpt: ^c Ic tumor implantation, ip QD15 treatment schedule.
as §1

Assay [3] concerns lymphoid leukemia L1210. Conditions: for OD / ILS / animals alive per 6: Table VIII; for survivors, IP L1210: Table XI, parentheses, per 6.
Excerpt: ^b Ip tumor implantation, ip QD19 treatment schedule.
^e ILS = [(treated survival + control survival) × 100%] - 100%
The L1210, P388 and B16 test systems described in Table II utilize intraperitoneal (IP) tumor implantation and IP drug treatment while the Lewis lung system employs subcutaneous tumor implantation and IP treatment. All three CNS tumor models (Table III) use intracerebral (IC) tumor implantation and IP treatment.
Aqueous saline solution (0.9%) was used as the drug vehicle. Normally, five doses were employed per experiment with the top dose chosen to produce toxicity. The lower doses were 50% of each preceeding dose.
Consistent with NCI antitumor test protocols, intraperitoneal (IP) administration of the drug was employed with all five tumor systems investigated. Tumor implantation was IP in the systems designated IP leukemia L1210 and P388 as well as B16 melanoma. Intracerebral (IC) tumor implantation was utilized in the IC L1210 and ependymoblastoma tumor systems.

Several values for one entry are separate records, joined by “and”; a condition that tells them apart may be missing. Equal values may be shown once. Entries after “also recorded” stand apart in the source; their conditions may differ. Read-outs that look alike come from different tables or passages of the source.

As for `O=C1C(NCCO)=C(N2CC2)C(=O)C(NCCO)=C1N1CC1` [Compound 38], the “activity in IP P388” value in assay [1] is reported as “very active producing multiple cures”. Moreover, the OD in assay [1] worked out at 0.4 mg/kg/injection; in the assay on B16 melanocarcinoma, 0.4 mg/kg/injection; in the assay on lymphoid leukemia L1210 [2] (QD1-9, Table X), 0.75 mg/kg/injection; in the assay on ependymoblastoma, 1.5 mg/kg/injection; with lymphoid leukemia L1210 [3] (Day 1 only (1 injection)), 1.5 mg/kg/injection; with lymphoid leukemia L1210 [3] (Q4D (day 1,5,9)), 0.7 mg/kg/injection. Further, in the assay with lymphoid leukemia L1210 [3] (QD1-9 (9 injections)), the OD is 0.7 mg/kg/injection. Also, the ILS was 175% and 160% in assay [1]; 61% and 51% in the assay on B16 melanocarcinoma; 57% and 48% with lymphoid leukemia L1210 [2] (QD1-9, at OD, Table X); 83% and 70% with ependymoblastoma; 175% and 119% in the assay with lymphoid leukemia L1210 [3] (Day 1 only, at OD); 131% and 70% in the assay with lymphoid leukemia L1210 [3] (Q4D, at OD). Also, the ILS in the assay with lymphoid leukemia L1210 [3] (QD1-9, at OD) is 205% and 134%. The “animals alive per 6” value in assay [1] is 3 and 2; in the assay with lymphoid leukemia L1210 [3] (Day 1 only, day 30, at OD), 5 and 3; with lymphoid leukemia L1210 [3] (QD1-9, day 30, at OD) it was 2 and 3. Further, the “survivors, P388” value in assay [1] is 3. The “activity in B16 melanoma” value in the assay with B16 melanocarcinoma is “reproducibly active”. Also, the “activity in IC L1210” value in the assay with lymphoid leukemia L1210 [2] is recorded as “marginal IC L1210 activity”. In addition, the “activity in IP L1210” value in the assay on lymphoid leukemia L1210 [3] was “Excellent activity; also recorded: produced cures; also recorded: superior”. In the assay with lymphoid leukemia L1210 [3], the “survivors, IP L1210” value came out at 2. In addition, the “maximum ILS” value in the assay on lymphoid leukemia L1210 [3] (chronic schedule) is above 200%.

Take `O=C1C(NCC(O)CO)=C(N2CC2)C(=O)C(NCC(O)CO)=C1N1CC1` (stereo not shown) [Compound 39]: in assay [1], the “activity in IP P388” value is recorded as “very active producing multiple cures”. For the same compound, the OD in assay [1] is 4.0 mg/kg/injection; in the assay with B16 melanocarcinoma it was 4.0 mg/kg/injection and 6.0 mg/kg/injection; in the assay with lymphoid leukemia L1210 [2] (QD1-9, Table X) it was 4.0 mg/kg/injection; in the assay on lymphoid leukemia L1210 [3] (Day 1 only (1 injection)), 4.0 mg/kg/injection and 2.0 mg/kg/injection; with lymphoid leukemia L1210 [3] (Q4D (day 1,5,9)), 4.0 mg/kg/injection and 8.0 mg/kg/injection; in the assay with lymphoid leukemia L1210 [3] (QD1-9 (9 injections)) it was 4.0 mg/kg/injection and 2.0 mg/kg/injection. The ILS in assay [1] was 143%; with B16 melanocarcinoma it was 50% and 42%; with lymphoid leukemia L1210 [2] (QD1-9, at OD, Table X) it was 43% and 41%; in the assay on ependymoblastoma, 99% and 53%; with lymphoid leukemia L1210 [3] (Day 1 only, at OD) it was 89%; in the assay with lymphoid leukemia L1210 [3] (Q4D, at OD), 90% and 79%. Further, the ILS in the assay with lymphoid leukemia L1210 [3] (QD1-9, at OD) is 206%. Besides, the “animals alive per 6” value in assay [1] is 6 and 4; with ependymoblastoma, 1; in the assay on lymphoid leukemia L1210 [3] (Day 1 only, day 30, at OD) it was 4. Further, the “survivors, P388” value in assay [1] was 6. Further, the “activity in B16 melanoma” value in the assay on B16 melanocarcinoma was “reproducibly active”. Also, in the assay with lymphoid leukemia L1210 [2], the “activity in IC L1210” value was “marginal IC L1210 activity”. Further, in the assay on ependymoblastoma, the “activity in ependymoblastoma” value is recorded as “moderate to good EM activity”. Besides, the “ILS (%) EM” value with ependymoblastoma (Table XI, outstanding activity) was determined as 99%. The “survivors, EM” value with ependymoblastoma (Table XI) was found to be 1; in the assay with ependymoblastoma (repeat test), 6. Moreover, in the assay with lymphoid leukemia L1210 [3], the “activity in IP L1210” value is given as “Excellent activity; also recorded: produced cures; also recorded: probably the most active compound in the IP ascites systems”. Further, the “survivors, IP L1210” value with lymphoid leukemia L1210 [3] is listed as 5.

As to `NC(=O)CNC1=C(N2CC2)C(=O)C(NCC(N)=O)=C(N2CC2)C1=O` [Compound 40], the OD was 2.0 mg/kg/injection in assay [1]; 2.0 mg/kg/injection and 1.0 mg/kg/injection in the assay with ependymoblastoma; 10.0 mg/kg/injection in the assay on lymphoid leukemia L1210 [3] (Day 1 only (1 injection)); 8.0 mg/kg/injection in the assay on lymphoid leukemia L1210 [3] (Q4D (day 1,5,9)); 10.0 mg/kg/injection in the assay with lymphoid leukemia L1210 [3] (QD1-9 (9 injections)). In addition, the ILS is 85% and 71% in assay [1]; 37% and 22% in the assay on B16 melanocarcinoma; 16% with lymphoid leukemia L1210 [2] (QD1-9, at OD, Table X); 64% and 50% in the assay on ependymoblastoma; 21% and 15% in the assay with lymphoid leukemia L1210 [3] (Day 1 only, at OD); 92% and 91% in the assay on lymphoid leukemia L1210 [3] (QD1-9, at OD).

On to `CN(C)C1=C(N2CC2)C(=O)C(N(C)C)=C(N2CC2)C1=O` [Compound 41, 2,5-DIAZIRIDINYL-3,6-BIS(DIMETHYLAMINO)-1,4-BENZOQUINONE], for which the OD in assay [1] is 1.0 mg/kg/injection and 0.5 mg/kg/injection; in the assay on B16 melanocarcinoma, 0.2 mg/kg/injection; in the assay with lymphoid leukemia L1210 [2] (Q4D(1,5,9), Table X) it was 3.0 mg/kg/injection; with ependymoblastoma it was 1.0 mg/kg/injection and 0.5 mg/kg/injection; with lymphoid leukemia L1210 [3] (Day 1 only (1 injection)), 1.5 mg/kg/injection; in the assay with lymphoid leukemia L1210 [3] (Q4D (day 1,5,9)), 3.0 mg/kg/injection. For the same compound, the ILS in assay [1] was 74% and 37%; with B16 melanocarcinoma, 16% and 12%; with lymphoid leukemia L1210 [2] (Q4D(1,5,9), at OD, Table X) it was 72% and 56%; in the assay with ependymoblastoma, 215% and 190%; in the assay on lymphoid leukemia L1210 [3] (Day 1 only, at OD), 21% and 15%; with lymphoid leukemia L1210 [3] (Q4D, at OD), 120% and 73%. Further, in the assay on lymphoid leukemia L1210 [2], the “activity in IC L1210” value is “most active; also recorded: significant activity”. Moreover, the “activity in ependymoblastoma” value in the assay on ependymoblastoma was “among the most active materials”. The “animals alive per 6” value was 5 and 4 in the assay on ependymoblastoma; 1 with lymphoid leukemia L1210 [3] (Q4D, day 30, at OD). Moreover, in the assay with ependymoblastoma (Table XI), the “survivors, EM” value came to 5. Also, the “survivors, IP L1210” value in the assay with lymphoid leukemia L1210 [3] came out at 1.

`CN(CCO)C1=C(N2CC2)C(=O)C(N(C)CCO)=C(N2CC2)C1=O` [Compound 42]: the OD was 1.6 mg/kg/injection and 0.8 mg/kg/injection in assay [1]; 0.8 mg/kg/injection in the assay with B16 melanocarcinoma; 4.0 mg/kg/injection and 2.0 mg/kg/injection in the assay with lymphoid leukemia L1210 [2] (QD1-9, Table X); 0.4 mg/kg/injection and 0.2 mg/kg/injection in the assay with ependymoblastoma; 0.4 mg/kg/injection and 0.2 mg/kg/injection with lymphoid leukemia L1210 [3] (Q4D (day 1,5,9)); 1.5 mg/kg/injection in the assay on lymphoid leukemia L1210 [3] (QD1-9 (9 injections)). Besides, the ILS in assay [1] is 162%; in the assay on B16 melanocarcinoma, 47% and 31%; with lymphoid leukemia L1210 [2] (QD1-9, at OD, Table X), 45% and 32%; with ependymoblastoma it was 84% and 69%; in the assay with lymphoid leukemia L1210 [3] (Day 1 only, at OD), -5%; with lymphoid leukemia L1210 [3] (QD1-9, at OD), 114% and 111%. Further, the “activity in B16 melanoma” value in the assay with B16 melanocarcinoma was “approached minimal reproducible activity”. For the same compound, in the assay with lymphoid leukemia L1210 [3] (QD1-9, day 30, at OD), the “animals alive per 6” value was 1. In the assay on lymphoid leukemia L1210 [3], the “survivors, IP L1210” value came out at 1.

As to `O=C1C(N2CC2)=C(N2CCCC(O)C2)C(=O)C(N2CC2)=C1N1CCCC(O)C1` (stereo not shown) [Compound 45], the OD is 1.0 mg/kg/injection in assay [1]; 1.0 mg/kg/injection in the assay on B16 melanocarcinoma; 8.0 mg/kg/injection and 6.0 mg/kg/injection with lymphoid leukemia L1210 [2] (Q4D(1,5,9), Table X); 6.0 mg/kg/injection and 4.0 mg/kg/injection in the assay with lymphoid leukemia L1210 [3] (Q4D (day 1,5,9)); 3.0 mg/kg/injection with lymphoid leukemia L1210 [3] (QD1-9 (9 injections)). Besides, the ILS in assay [1] was 95% and 78%; in the assay with B16 melanocarcinoma it was 40% and 37%; with ependymoblastoma, 64% and 48%; with lymphoid leukemia L1210 [3] (Q4D, at OD), 104% and 84%; with lymphoid leukemia L1210 [3] (QD1-9, at OD) it was 59% and 44%. The “activity in B16 melanoma” value with B16 melanocarcinoma is on record as “approached minimal reproducible activity”. Moreover, the “animals alive per 6” value in the assay on lymphoid leukemia L1210 [3] (Q4D, day 30, at OD) is listed as 2.

For the origin of these results see patent US4704384A, “Aziridinyl quinone antitumor agents” (priority 1981, dated 1987).
